The target of this test is T1, KCNT1 (KNa1.1, Slack) (Homo sapiens, UniProt Q5JUK3).
T1 construct: expressed in transfected cells; host or cells: HEK-TREX (tetracycline-inducible HEK cell line)
T1 sequence (Q5JUK3 1-1230): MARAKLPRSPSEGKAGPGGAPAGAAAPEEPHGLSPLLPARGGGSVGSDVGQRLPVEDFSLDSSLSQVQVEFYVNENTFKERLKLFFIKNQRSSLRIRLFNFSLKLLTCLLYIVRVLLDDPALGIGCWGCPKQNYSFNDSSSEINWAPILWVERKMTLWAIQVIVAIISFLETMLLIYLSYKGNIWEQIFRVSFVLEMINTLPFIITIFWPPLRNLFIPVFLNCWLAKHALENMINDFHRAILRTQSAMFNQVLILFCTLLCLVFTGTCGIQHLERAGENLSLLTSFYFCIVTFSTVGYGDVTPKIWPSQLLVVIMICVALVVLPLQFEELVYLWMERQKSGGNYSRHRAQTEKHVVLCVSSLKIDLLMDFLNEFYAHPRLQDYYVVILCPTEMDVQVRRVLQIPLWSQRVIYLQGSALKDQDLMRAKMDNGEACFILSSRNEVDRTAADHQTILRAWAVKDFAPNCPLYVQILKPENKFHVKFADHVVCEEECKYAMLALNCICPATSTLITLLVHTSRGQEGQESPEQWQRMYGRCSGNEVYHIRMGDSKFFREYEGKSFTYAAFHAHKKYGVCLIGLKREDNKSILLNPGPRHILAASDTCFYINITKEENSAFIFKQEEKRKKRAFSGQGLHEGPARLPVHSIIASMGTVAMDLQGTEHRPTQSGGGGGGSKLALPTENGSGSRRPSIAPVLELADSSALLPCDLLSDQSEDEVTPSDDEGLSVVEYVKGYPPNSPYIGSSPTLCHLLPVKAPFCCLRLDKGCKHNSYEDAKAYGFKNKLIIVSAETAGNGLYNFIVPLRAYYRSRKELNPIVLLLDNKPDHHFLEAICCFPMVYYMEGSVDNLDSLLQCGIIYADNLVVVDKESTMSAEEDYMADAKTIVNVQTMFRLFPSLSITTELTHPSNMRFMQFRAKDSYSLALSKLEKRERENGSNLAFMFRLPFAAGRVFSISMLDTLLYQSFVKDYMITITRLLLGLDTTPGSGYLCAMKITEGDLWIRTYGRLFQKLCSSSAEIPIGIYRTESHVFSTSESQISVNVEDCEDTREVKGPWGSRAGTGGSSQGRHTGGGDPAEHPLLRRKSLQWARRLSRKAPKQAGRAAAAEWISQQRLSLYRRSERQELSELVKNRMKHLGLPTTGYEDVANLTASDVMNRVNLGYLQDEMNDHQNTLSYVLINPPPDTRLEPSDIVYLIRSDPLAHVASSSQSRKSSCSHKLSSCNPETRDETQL
As to the kind of experiment: KCNT1-WT-Basal patch clamp assay (SyncroPatch 384PE, HEK-TREX inducible cell line). The class given is cell-based. To be noted: tetracycline inducible HEK-TREX cells; perforated patch; holding -80 mV, 100 ms step to 0 mV; room temperature; read-out: KCNT1 WB IC50. How it is done:
KCNT1-WT-Basal—Patch Clamp Assay
Inhibition of KCNT1 (KNa1.1, Slack) was evaluated using a tetracycline inducible cell line (HEK-TREX). Currents were recorded using the SyncroPatch 384PE automated, patch clamp system. Pulse generation and data collection were performed with PatchController384 V1.3.0 and DataController384 V1.2.1 (Nanion Technologies). The access resistance and apparent membrane capacitance were estimated using built-in protocols. Current were recorded in perforated patch mode (10 μM escin) from a population of cells. The cells were lifted, triturated, and resuspended at 800,000 cells/ml. The cells were allowed to recover in the cell hotel prior to experimentation. Currents were recorded at room temperature. The external solution contained the following (in mM): NaCl 105, NMDG 40, KCl 4, MgCl2 1, CaCl2 5 and HEPES 10 (pH=7.4, Osmolarity ˜300 mOsm). The extracellular solution was used as the wash, reference and compound delivery solution. The internal solution contained the following (in mM): NaCl 70, KF 70, KCl 10, EGTA 5, HEPES 5 and Escin 0.01 (pH=7.2, Osmolarity ˜295 mOsm). Escin is made at a 5 mM stock in water, aliquoted, and stored at −20° C. The compound plate was created at 2× concentrated in the extracellular solution. The compound was diluted to 1:2 when added to the recording well. The amount of DMSO in the extracellular solution was held constant at the level used for the highest tested concentration. A holding potential of −80 mV with a 100 ms step to 0 mV was used. Mean current was measured during the step to 0 mV. […] The average mean current from 3 sweeps was calculated and the % inhibition of each compound was calculated. The % Inhibition as a function of the compound concentration was fit with a Hill equation to derive IC50, slope, min and max parameters. If KCNT1 inhibition was less than 50% at the highest tested concentration or if an IC50 could not be calculated, then a percent inhibition was reported in place of the IC50.
A general note: In patch-clamp work, channel activity is measured electrically.
As for `CN(C)C(=O)CN(c1ccc(C(=O)N[C@@H]2CCc3cc(Cl)ccc32)cc1)S(C)(=O)=O` [Compound II-49], the IC50 – broadly, the concentration at which inhibition is half-maximal – fell in the range of 1 to 20 µM.

In the case of `Cn1c(C(=O)N[C@@H]2CCc3cc(Cl)ccc32)ccc1S(N)(=O)=O` [Compound I-13], the IC50 was at least 20 µM.

With `O=C(N[C@@H]1CCc2cc(Cl)ccc21)c1cc(F)ccc1O` [Compound III-6], the IC50 was at most 1 µM.

Turning to `CS(=O)(=O)Nc1ccc(C(=O)N[C@H]2CCc3cc(Cl)ccc32)cc1` [Compound II-3], the half-maximal inhibitory concentration (IC50) is at least 20 µM.

On to `Nc1ccc(C(=O)N[C@H]2CCc3cc(Cl)ccc32)cc1` (single isomer, unassigned) [Compound II-16], for which the IC50 is at least 20 µM.

Consider `Cc1sc(C(=O)N[C@@H]2CCc3cc(Cl)ccc32)cc1S(N)(=O)=O` [Compound I-8], for which the IC50 lay within 1 to 20 µM.

In the case of `CS(=O)(=O)N(CCOC(F)(F)F)c1ccc(C(=O)N[C@@H]2CCc3cc(Cl)ccc32)cc1` [Compound II-46], the half-maximal inhibitory concentration (IC50) is at least 20 µM.

As for `CC(=O)NCc1ccc(C(=O)N[C@@H]2CCc3cc(Cl)ccc32)s1` [Compound I-44], the IC50 was at most 1 µM.

With `COc1ccc(C(=O)NC2CCc3cc(Cl)ccc32)c(O)c1` (single isomer, unassigned) [Compound III-1, N-(5-chloroindan-1-yl)-2-hydroxy-4-methoxy-benzamide], the half-maximal inhibitory concentration (IC50) is over 20 µM.

`O=C(N[C@@H]1CCc2cc(Cl)ccc21)c1ccc(NS(=O)(=O)C(F)(F)F)cc1` [Compound II-12]: the IC50 is at least 20 µM.

As to `O=C(N[C@@H]1CCc2cc(Cl)ccc21)c1cccc(Cl)c1O` [Compound III-7], the IC50 is at most 1 µM.

Regarding `NS(=O)(=O)c1ccc(C(=O)N[C@@H]2CCCc3cc(Cl)ccc32)s1` (single isomer, unassigned) [Compound I-33], the IC50 is at least 20 µM.

On to `Cc1cc(C(=O)N[C@@H]2CCc3cc(Cl)ccc32)ccc1S(C)(=O)=O` [Compound II-48], for which the IC50 was 1 to 20 µM.

For the compound `NS(=O)(=O)c1ccc(C(=O)N[C@H]2CCCc3cc(Cl)ccc32)s1` (single isomer, unassigned) [Compound I-32], the half-inhibitory concentration (IC50) is at most 1 µM.

In the case of `Cc1cc(S(N)(=O)=O)sc1C(=O)N[C@@H]1CCc2cc(Cl)ccc21` [Compound I-10], the IC50 is 1 to 20 µM.

In the case of `Cc1cccc(C(=O)N[C@@H]2CCc3cc(Cl)ccc32)c1O` [Compound III-15], the IC50 was at most 1 µM.

As for `O=C(N[C@@H]1CCc2cc(Cl)ccc21)c1ccc(S(=O)(=O)N2CC[C@H](O)C2)s1` [Compound I-41], the half-inhibitory concentration (IC50) is at most 1 µM.

For `COCCS(=O)(=O)c1ccc(C(=O)N[C@@H]2CCc3cc(Cl)ccc32)cc1` [Compound II-40], the IC50 was 1 to 20 µM.

With `CNS(=O)(=O)c1ccc(C(=O)N[C@@H]2CCc3cc(Cl)ccc32)s1` [Compound I-16], the IC50 was at most 1 µM.

With `O=C(N[C@H]1CCc2cc(Cl)ccc21)c1ccc(NS(=O)(=O)C(F)(F)F)cc1` [Compound II-29, N-[(1S)-5-chloroindan-1-yl]-4-(trifluoromethylsulfonylamino)benzamide], the 50% inhibitory concentration (IC50) is at least 20 µM.

On to `CC(=O)N(C)Cc1ccc(C(=O)N[C@@H]2CCc3cc(Cl)ccc32)s1` [Compound I-39], for which the IC50 was at most 1 µM.

For the compound `CNC(=O)c1ccc(C(=O)N[C@@H]2CCc3cc(Cl)ccc32)s1` [Compound I-28], the 50% inhibitory concentration (IC50) was at most 1 µM.

Turning to `COCCN(c1ccc(C(=O)N[C@@H]2CCc3cc(Cl)ccc32)cc1)S(C)(=O)=O` [Compound II-43], the IC50 lay within 1 to 20 µM.

Turning to `COc1cccc(C(=O)N[C@@H]2CCc3cc(Cl)ccc32)c1O` [Compound III-14], the IC50 is at most 1 µM.

For `CCS(=O)(=O)Nc1ccc(C(=O)N[C@@H]2CCc3cc(Cl)ccc32)cc1` [Compound II-10, N-[(1R)-5-chloroindan-1-yl]-4-(ethylsulfonylamino)benzamide], the IC50 was at most 1 µM.

`O=C(N[C@@H]1CCc2cc(Cl)ccc21)c1c(O)cccc1F` [Compound III-8]: the half-maximal inhibitory concentration (IC50) is 1 to 20 µM.

For `CS(=O)(=O)Cc1ccc(C(=O)NC2CCc3cc(Cl)ccc32)cc1` (single isomer, unassigned) [Compound II-5, N-(5-chloroindan-1-yl)-4-(methylsulfonylmethyl)benzamide], the IC50 is at least 20 µM.

As to `COCCS(=O)(=O)c1ccc(C(=O)N[C@@H]2CCc3cc(Cl)ccc32)s1` [Compound I-47], the IC50 was at most 1 µM.

As to `CN(c1ccc(C(=O)NC2CCc3cc(Cl)ccc32)cc1)S(C)(=O)=O` (single isomer, unassigned) [Compound II-1, N-(5-chloroindan-1-yl)-4-[methyl(methylsulfonyl)amino]benzamide], the IC50 was at least 20 µM.

As to `CN(C)S(=O)(=O)c1ccc(C(=O)N[C@@H]2CCc3cc(Cl)ccc32)s1` [Compound I-15], the concentration for half-maximal inhibition (IC50) was at most 1 µM.

Consider `Cc1cc(S(N)(=O)=O)oc1C(=O)N[C@@H]1CCc2cc(Cl)ccc21` [Compound I-12], for which the IC50 was at least 20 µM.

In the case of `Cc1oc(S(N)(=O)=O)cc1C(=O)N[C@@H]1CCc2cc(Cl)ccc21` [Compound I-11], the IC50 was at least 20 µM.

With `Cc1oc(C(=O)N[C@@H]2CCc3cc(Cl)ccc32)cc1S(N)(=O)=O` [Compound I-9], the IC50 fell in the range of 1 to 20 µM.

As to `Cc1ccc(O)c(C(=O)N[C@@H]2CCc3cc(Cl)ccc32)c1` [Compound III-12], the IC50 was at most 1 µM.

Turning to `O=C(N[C@@H]1CCc2cc(Cl)ccc21)c1cccc(C(F)(F)F)c1O` [Compound III-10], the IC50 was at most 1 µM.

Consider `CS(=O)(=O)c1ccc(C(=O)N[C@@H]2CCCc3cc(Cl)ccc32)s1` (single isomer, unassigned) [Compound I-25], for which the IC50 was at least 20 µM.

As to `O=C(N[C@@H]1CCc2cc(Cl)ccc21)c1ccc(S(=O)(=O)N2CCOCC2)s1` [Compound I-45], the IC50 is at most 1 µM.

As for `NS(=O)(=O)c1cc(C(=O)N[C@@H]2CCc3cc(Cl)ccc32)cs1` [Compound I-6], the IC50 was at most 1 µM.

Consider `CNS(=O)(=O)c1ccc(C(=O)N[C@H]2CCCc3cc(Cl)ccc32)s1` (single isomer, unassigned) [Compound I-22], for which the concentration for half-maximal inhibition (IC50) is at most 1 µM.

As for `CS(=O)(=O)c1ccc(C(=O)N[C@H]2CCCc3cc(Cl)ccc32)s1` (single isomer, unassigned) [Compound I-24], the concentration for half-maximal inhibition (IC50) was at most 1 µM.

For the compound `CCS(=O)(=O)c1ccc(C(=O)N[C@@H]2CCc3cc(Cl)ccc32)cc1` [Compound II-30], the IC50 is at most 1 µM.

As for `CO[C@@H]1CCN(S(=O)(=O)c2ccc(C(=O)N[C@@H]3CCc4cc(Cl)ccc43)s2)C1` [Compound I-46], the IC50 was at most 1 µM.

As to `O=C(N[C@@H]1CCc2cc(Cl)ccc21)c1ccc(S(=O)(=O)C2CC2)cc1` [Compound II-39], the IC50 was at most 1 µM.

As for `CS(=O)(=O)c1ccc(C(=O)N[C@H]2CCCc3cc(Cl)ccc32)cc1` (single isomer, unassigned) [Compound II-55], the IC50 lay in the range of 1 to 20 µM.

The record behind these values is US20220280476A1, “KCNT1 INHIBITORS AND METHODS OF USE” (Praxis Precision Medicines, Inc., priority 2019, published 2022).
